Experimental findings from PMC11250742, “Preclinical evaluation of CXCR4 peptides for targeted radionuclide therapy in glioblastoma” (EJNMMI Radiopharmacy and Chemistry, 2024) are described below.

One experiment concerns the target T1, CXCR4 (Homo sapiens, UniProt P61073).
T1 construct: expressed in transfected cells; host or cells: U87-MG (U87-CXCR4+), kept under blasticidin selection
Description: Saturation binding assay on U87-CXCR4 + cells. Conditions: 0.1–1000 nM, 4 h, 37 °C; NSB with 100 µM AMD11070; N = 2. On the procedure: In the saturation binding assays, U87-CXCR4 + cells were seeded in 24-well plates and allowed to adhere. The night before the experiment, complete media was replaced with media containing 2% FBS. To determine the total binding, cells were treated with a mixture of each radiolabelled peptide (at final concentrations ranging from 0.1 to 1000 nM, corresponding to activity concentrations ranging from 0.005 to 50 MBq/mL) with 0.2% dimethyl sulfoxide (DMSO, vehicle). Non-specific binding (NSB) was verified by treating cells with a mixture of each radiolabelled peptide with 100 µM of AMD11070, a potent CXCR4 antagonist.
After 4 h of incubation at 37 °C and 5% CO2, the unbound fraction was collected in gamma counter tubes, and the cells were washed twice with PBS. The wash fractions were added to the same gamma counter tubes. Next, cells were lysed by incubation with 1 M NaOH for 30 min at room temperature (RT). After collecting the lysed cell fractions, two washes with 1 M NaOH were performed, and added to the same fractions, corresponding to the total bound fractions.
The activities of all collected fractions were measured in an automated gamma counter. […]
Statistical analyses and data plotting were done using GraphPad Prism 10. […] Statistical significance was evaluated with one-way ANOVA followed by post-hoc comparisons with the untreated cells using Dunnett’s test. […]

Another experiment concerns U87-CXCR4 + cells. In words: MTS cell viability assay. Particulars: 2 h. The experiment is classed as cell-based. On the procedure: Cell viability assays were performed using increasing activity concentrations of the radiolabelled peptides (1 to 20 MBq/mL), incubated with U87-CXC4 + cells for four hours at 37 °C, 5% CO2. After the incubation period, cells were washed twice with PBS and replenished with complete media. After five and seven days of treatment, the cell media was removed and MTS (3-(4,5-dimethylthiazol-2-yl)-5-(3-carboxymethoxyphenyl)-2-(4-sulfophenyl)-2 H-tetrazolium) reagent added, prepared according to manufacturer’s instructions (CellTiter 96® AQueous One Solution Cell Proliferation Assay, Promega, Wisconsin, United States). To determine the effect of the radiation originating from unbound radiolabelled peptides, cells were treated with equivalent activity concentrations of [^177Lu]Lu-DTPA. Triton X-100 (0.1%) was used as a positive control. Vehicle includes the NaOAc radiolabeling buffer at the concentration used for the 20 MBq/mL peptide solutions. The cells were incubated for 0.5–1 h with the MTS reagent at 37 °C, 5% CO2. Absorbance was measured at 490 nm using a BioTek Synergy H1 plate reader (Agilent Technologies, Mechelen, Belgium). Cell viability was normalised to the vehicle and calculated as percentage of cell viability.

Where a SMILES comes first, the peptide text is derived from it. Bridges are numbered along the chain shown (N, C = ends). [ ]: non-standard residue; d: D form. The star is where a group is joined. DOTA = O=C(O)CN1CCN(CC(=O)O)CCN(CC(=O)*)CCN(CC(=O)O)CC1; 2Nal = N[C@@H](Cc1ccc2ccccc2c1)C(=O)O; Cit = NC(=O)NCCC[C@H](N)C(=O)O

T1 sequence (P61073 whole entry): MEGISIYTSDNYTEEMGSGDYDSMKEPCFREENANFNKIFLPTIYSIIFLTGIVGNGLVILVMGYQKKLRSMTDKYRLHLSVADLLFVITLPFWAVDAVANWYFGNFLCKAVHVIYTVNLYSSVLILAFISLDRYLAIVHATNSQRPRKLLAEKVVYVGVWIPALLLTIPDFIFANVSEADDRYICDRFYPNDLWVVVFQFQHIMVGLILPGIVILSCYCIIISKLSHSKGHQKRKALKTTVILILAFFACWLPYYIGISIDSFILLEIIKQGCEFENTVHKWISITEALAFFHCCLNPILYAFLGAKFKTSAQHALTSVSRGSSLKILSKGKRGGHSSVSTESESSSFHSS

On to `N=C(N)NCCC[C@@H]1NC(=O)[C@@H]2CSSC[C@H](NC(=O)[C@H](Cc3ccc4ccccc4c3)NC(=O)[C@H](CCCNC(=N)N)NC(=O)[C@H](CCCNC(=N)N)NC(=O)[C@H]3CCCN3C(=O)CNC1=O)C(=O)N[C@@H](Cc1ccc(O)cc1)C(=O)N[C@@H](CCC(N)=O)C(=O)N[C@@H](CCCCNC(=O)CN1CCN(CC(=O)O)CCN(CC(=O)O)CCN(CC(=O)O)CC1)C(=O)N1CCC[C@@H]1C(=O)N1CCC[C@H]1C(=O)N[C@@H](Cc1ccc(O)cc1)C(=O)N[C@@H](CCCNC(=N)N)C(=O)N[C@@H](CCCNC(N)=O)C(=O)N2` [[^177Lu]Lu-DOTA-POL3026, metal not drawn] (cyclo(RR[2Nal]CYQK(DOTA)[dP]PYR[Cit]CRG[dP]); disulfide 4-13), for which the Kd at CXCR4 is 0.0218 µM. Further, the cell viability with U87-CXCR4 + cells came out at 52.3 ± 9.9%.
